Measured values: the NIST ThermoML archive (doi:10.1016/j.tca.2013.01.028)
Numbers after ± are expanded uncertainties.

Experiment: excess molar enthalpy (molar enthalpy of mixing); xn = mol fraction of the nth substance listed
Conditions: 303.15 K, 101 kPa, Liquid, Calvet calorimetry

Row | Compound | excess molar enthalpy (x1 = 0.2481) | excess molar enthalpy (x1 = 0.5) | excess molar enthalpy (x1 = 0.7576) | excess molar enthalpy (x2 = 0.247) | excess molar enthalpy (x2 = 0.4944) | excess molar enthalpy (x2 = 0.7685)
1 | c1ccccc1 [benzene] + CCCCCCC | 0.145 ± 0.00167 kcal/mol | 0.221 ± 0.00239 kcal/mol | 0.186 ± 0.0021 kcal/mol |  |  | 
2 | c1ccccc1 [benzene] + Cc1ccccc1 |  |  |  | 0.013 ± 0.000359 kcal/mol | 0.017 ± 0.000406 kcal/mol | 0.0114 ± 0.000359 kcal/mol
